We go through 4 compounds from US20110015119A1, “NOVEL SEMI-SYNTHETIC GLYCOPEPTIDES AS ANTIBACTERIAL AGENTS” (LEAD THERAPEUTICS, INC., priority 2009, published 2011).

Format in all cases: cell-based
Experiment [1] deals with Staphylococcus aureus 100 (ATCC 29213). Put plainly: MIC by broth microdilution, SA 100. In a few lines: (§1)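 Clinical isolates, glycopeptide-sensitive or -resistant, were tested in Mueller-Hinton broth. MICs came from the CLSI-recommended serial broth microdilution procedure.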
(Broth dilution looks for growth in wells or tubes with falling amounts of substance.)

Experiment [2] has as its system Staphylococcus aureus 757 (MRSA). Put plainly: MIC by broth microdilution, SA 757. Conditions: read-out: MIC SA 757. In a few lines:
as §1

Experiment [3] relates to Staphylococcus aureus 2012 (VISA). Put plainly: MIC by broth microdilution, SA 2012. As to conditions: class symbols. Put shortly: as §1
The subject of experiment [4] is Staphylococcus epidermidis 835. Put plainly: MIC by broth microdilution, SE 835. Put shortly: as §1
Experiment [5] concerns Staphylococcus epidermidis 831 (MRSE). Put plainly: MIC by broth microdilution, SE 831. Conditions: read-out: MIC SE 831. Put shortly: as §1
Experiment [6] relates to Enterococcus faecalis 101 (ATCC 29212). The experiment can be described thus: MIC by broth microdilution, EFc 101. As to conditions: class symbols. In a few lines:
as §1

Experiment [7] has as its system Enterococcus faecalis 848 (VRE, Van A). The experiment can be described thus: MIC by broth microdilution, EFc 848. Conditions: class symbols. Put shortly:
as §1

A further experiment deals with Enterococcus faecium 800. The experiment can be described thus: MIC by broth microdilution, EFcm 800. Put shortly:
as §1

The subject of experiment [8] is Enterococcus faecium 752 (VRE, Van A). Put plainly: MIC by broth microdilution, EFcm 752. As to conditions: class symbols. In a few lines:
as §1

In experiment [9] the test system is Streptococcus pneumoniae 1195 (ATCC 49619). The experiment can be described thus: MIC by broth microdilution, SPNE 1195. Put shortly: as §1
The test system of experiment [10] is Streptococcus pyogenes 712. Put plainly: MIC by broth microdilution, SPY 712. Put shortly: as §1
The mark [11] stands for this setting: ATCC29213, Staphylococcus aureus 100 (ATCC 29213), class symbols, read-out: MIC SA 100.
The mark [12] stands for this setting: Staphylococcus aureus 757 (MRSA), class symbols.
Where [13] appears, read: Staphylococcus aureus 2012 (VISA), read-out: MIC SA 2012.
Where [14] appears, read: Staphylococcus epidermidis 835, class symbols, read-out: MIC SE 835.
[15] abbreviates: Staphylococcus epidermidis 831 (MRSE), class symbols.
Where [16] appears, read: ATCC29212, Enterococcus faecalis 101 (ATCC 29212), read-out: MIC E FC 101.
Where [17] appears, read: Enterococcus faecalis 848 (VRE, Van A), read-out: MIC E FC 848.
[18] abbreviates: Enterococcus faecium 800, class symbols, read-out: MIC E FCM 800.
Where [19] appears, read: Enterococcus faecium 752 (VRE, Van A), read-out: MIC E FCM 752.
The mark [20] stands for this setting: ATCC49619, Streptococcus pneumoniae 1195 (ATCC 49619), class symbols, read-out: MIC S PNE 1195.
Where [21] appears, read: Streptococcus pyogenes 712, class symbols, read-out: MIC S PYO 712.
Setting [22] is: Staphylococcus aureus, ATCC29213, read-out: MIC SA 100.
[23] abbreviates: Staphylococcus aureus, VISA, read-out: MIC SA 2012, Staphylococcus aureus 2012 (VISA).
[24] abbreviates: Staphylococcus epidermidis, 835, read-out: MIC SE 835.
Where [25] appears, read: Staphylococcus epidermidis, MRSE.
Where [26] appears, read: Enterococcus faecalis, ATCC29212, read-out: MIC E FC 101, Enterococcus faecalis 101 (ATCC 29212).
Where [27] appears, read: Enterococcus faecalis, VRE, read-out: MIC E FC 848, Enterococcus faecalis 848 (VRE, Van A).
The mark [28] stands for this setting: Enterococcus faecium, 800, read-out: MIC E FCM 800.
The mark [29] stands for this setting: Enterococcus faecium, VRE, read-out: MIC E FCM 752, Enterococcus faecium 752 (VRE, Van A).
[30] abbreviates: Streptococcus pneumoniae, ATCC49619, read-out: MIC S PNE 1195.
Where [31] appears, read: Streptococcus pyogenes, 712, read-out: MIC S PYO 712.

Values after ≈ are worked out from the molar mass of the structure shown. Like-named read-outs stand apart in the source and are kept apart here.

The MIC is the smallest concentration in the dilution series that meets the test's criterion for growth inhibition. Regarding `CCCCCOc1ccc(S(=O)(=O)NCCCCCCNCc2c(O)cc3c(c2O)-c2cc(ccc2O)[C@H]2NC(=O)[C@@H]4NC(=O)[C@H](CC(N)=O)NC(=O)[C@H](NC(=O)[C@@H](CC(C)C)NC)[C@H](O)c5ccc(c(Cl)c5)Oc5cc4cc(c5O[C@@H]4O[C@H](CO)[C@@H](O)[C@H](O)[C@H]4O[C@H]4C[C@](C)(NC(=O)CN)[C@H](O)[C@H](C)O4)Oc4ccc(cc4Cl)[C@@H](O)[C@H](NC2=O)C(=O)N[C@@H]3C(=O)O)cc1` (atropisomer, axis not shown) [Compound 345], the MIC in experiment [1] (setting [11]), in [2] (setting [12]), in experiment [3] (setting [13]), in [4] (setting [14]), in [5] (setting [15]) and in experiment [6] (setting [16]) was 0.01 to 0.5 µg/mL (≈ 0.00537 to 0.269 µM) throughout. In addition, the MIC in [7] (setting [17]) is more than 16 µg/mL; in the experiment on Enterococcus faecium 800 (setting [18]), 0.01 to 0.5 µg/mL (≈ 0.00537 to 0.269 µM); in [8] (setting [19]), 8 to 16 µg/mL (≈ 4.3 to 8.6 µM); in [9] (setting [20]), 0.01 to 0.5 µg/mL (≈ 0.00537 to 0.269 µM); in [10] (setting [21]) it was 0.01 to 0.5 µg/mL (≈ 0.00537 to 0.269 µM).
Turning to `CCCCCCc1ccc(S(=O)(=O)NCCCCCCNC(=O)Oc2cc(O)c3c(c2)[C@@H](C(=O)O)NC(=O)[C@H]2NC(=O)[C@H](NC(=O)[C@@H]4NC(=O)[C@H](CC(N)=O)NC(=O)[C@H](NC(=O)[C@@H](CC(C)C)NC)[C@H](O)c5ccc(c(Cl)c5)Oc5cc4cc(c5O[C@@H]4O[C@H](CO)[C@@H](O)[C@H](O)[C@H]4O[C@H]4C[C@](C)(N)[C@H](O)[C@H](C)O4)Oc4ccc(cc4Cl)[C@H]2O)c2ccc(O)c-3c2)cc1` (atropisomer, axis not shown) [Compound 352], the MIC lay within 0.01 to 0.5 µg/mL (≈ 0.00551 to 0.275 µM) in experiment [1] (setting [22]); 0.01 to 0.5 µg/mL (≈ 0.00551 to 0.275 µM) in experiment [2] (Staphylococcus aureus, MRSA); 0.01 to 0.5 µg/mL (≈ 0.00551 to 0.275 µM) in experiment [3] (setting [23]); 0.01 to 0.5 µg/mL (≈ 0.00551 to 0.275 µM) in [4] (setting [24]); 0.01 to 0.5 µg/mL (≈ 0.00551 to 0.275 µM) in [5] (setting [25]); 0.01 to 0.5 µg/mL (≈ 0.00551 to 0.275 µM) in experiment [6] (setting [26]). The minimum inhibitory concentration (MIC) in [7] (setting [27]) was 2 to 4 µg/mL (≈ 1.1 to 2.2 µM); with Enterococcus faecium 800 (setting [28]), 0.01 to 0.5 µg/mL (≈ 0.00551 to 0.275 µM); in [8] (setting [29]) it was 0.5 to 1 µg/mL (≈ 0.275 to 0.551 µM); in experiment [9] (setting [30]), 0.01 to 0.5 µg/mL (≈ 0.00551 to 0.275 µM); in experiment [10] (setting [31]) it was 0.01 to 0.5 µg/mL (≈ 0.00551 to 0.275 µM).
Take `CCCCCOc1ccc(S(=O)(=O)NCCCCCCNCc2c(O)cc3c(c2O)-c2cc(ccc2O)[C@H]2NC(=O)[C@@H]4NC(=O)[C@H](CC(N)=O)NC(=O)[C@H](NC(=O)[C@@H](CC(C)C)NC)[C@H](O)c5ccc(c(Cl)c5)Oc5cc4cc(c5O[C@@H]4O[C@H](CO)[C@@H](O)[C@H](O)[C@H]4O[C@H]4C[C@](C)(NC(=O)[C@@H](C)N)[C@H](O)[C@H](C)O4)Oc4ccc(cc4Cl)[C@@H](O)[C@H](NC2=O)C(=O)N[C@@H]3C(=O)O)cc1` (atropisomer, axis not shown) [Compound 357]: the MIC in experiment [1] (setting [11]), in experiment [2] (setting [12]), in experiment [3] (setting [13]), in [4] (setting [14]), in experiment [5] (setting [15]) and in experiment [6] (setting [16]) was 0.01 to 0.5 µg/mL (≈ 0.00533 to 0.267 µM) each time. The MIC in experiment [7] (setting [17]) was more than 16 µg/mL; in the experiment with Enterococcus faecium 800 (setting [18]), 0.01 to 0.5 µg/mL (≈ 0.00533 to 0.267 µM); in experiment [8] (setting [19]), 4 to 8 µg/mL (≈ 2.13 to 4.27 µM); in experiment [9] (setting [20]), 0.01 to 0.5 µg/mL (≈ 0.00533 to 0.267 µM); in [10] (setting [21]), 0.01 to 0.5 µg/mL (≈ 0.00533 to 0.267 µM).
Regarding `CCCCCOc1ccc(S(=O)(=O)NCCCCCCNC(=O)Oc2cc(O)c3c(c2)[C@@H](C(=O)O)NC(=O)[C@H]2NC(=O)[C@H](NC(=O)[C@@H]4NC(=O)[C@H](CC(N)=O)NC(=O)[C@H](NC(=O)[C@@H](CC(C)C)NC)[C@H](O)c5ccc(c(Cl)c5)Oc5cc4cc(c5O[C@@H]4O[C@H](CO)[C@@H](O)[C@H](O)[C@H]4O[C@H]4C[C@](C)(N)[C@H](O)[C@H](C)O4)Oc4ccc(cc4Cl)[C@H]2O)c2ccc(O)c-3c2)cc1` (atropisomer, axis not shown) [Compound 322], the MIC in experiment [1] (setting [22]) is 0.01 to 0.5 µg/mL (≈ 0.0055 to 0.275 µM); in experiment [2] (Staphylococcus aureus, MRSA) it was 0.01 to 0.5 µg/mL (≈ 0.0055 to 0.275 µM); in [3] (setting [23]), 1 to 2 µg/mL (≈ 0.55 to 1.1 µM); in experiment [4] (setting [24]), 0.01 to 0.5 µg/mL (≈ 0.0055 to 0.275 µM); in experiment [5] (setting [25]), 0.01 to 0.5 µg/mL (≈ 0.0055 to 0.275 µM); in experiment [6] (setting [26]), 0.01 to 0.5 µg/mL (≈ 0.0055 to 0.275 µM). Also, the MIC in experiment [7] (setting [27]) was in the range of 8 to 16 µg/mL (≈ 4.4 to 8.8 µM); with Enterococcus faecium 800 (setting [28]) it was 0.01 to 0.5 µg/mL (≈ 0.0055 to 0.275 µM); in experiment [8] (setting [29]) it was 2 to 4 µg/mL (≈ 1.1 to 2.2 µM); in experiment [9] (setting [30]), 0.01 to 0.5 µg/mL (≈ 0.0055 to 0.275 µM); in experiment [10] (setting [31]) it was 0.01 to 0.5 µg/mL (≈ 0.0055 to 0.275 µM).
